Source: PubChem BioAssay AID330 (DTP/NCI, 2004)
Several values for one entry are separate records, joined by “and”; a condition that tells them apart may be missing. Equal values may be shown once. Toxic doses and inconclusive results are not listed.

System: P388 leukemia ip, CD2F1 mice, survival T/C
Assay: NCI In Vivo Anticancer Drug Screen. Data for tumor model P388 Leukemia (intraperitoneal) in CD2F1 (CDF1) mice
Conditions: endpoint: median survival time, higher = longer survival
Outline: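 Mice carrying the transplanted tumor received test compound or vehicle. Survival was recorded in each group, and the value is the treated-group measurement divided by that of the vehicle-treated control group.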

[1] = dose: 100.0 mg/kg/injection, schedule: Q04DX003 (ip), vehicle: saline with Tween-80
[2] = dose: 50.0 mg/kg/injection, schedule: Q01DX005 (ip), vehicle: saline with Tween-80
[3] = dose: 100.0 mg/kg/injection, schedule: Q01DX005 (ip), vehicle: saline with Tween-80
[4] = dose: 50.0 mg/kg/injection, schedule: Q01DX005 (ip), vehicle: Klucel (hydroxypropylcellulose) (HPC)
[5] = dose: 200.0 mg/kg/injection, schedule: Q01DX005 (ip), vehicle: Klucel (hydroxypropylcellulose) (HPC)
[6] = dose: 50.0 mg/kg/injection, schedule: Q01DX009 (ip), vehicle: Klucel (hydroxypropylcellulose) (HPC)
[7] = dose: 100.0 mg/kg/injection, schedule: Q01DX009 (ip), vehicle: Klucel (hydroxypropylcellulose) (HPC)
[8] = dose: 100.0 mg/kg/injection, schedule: Q01DX005 (ip), vehicle: Klucel (hydroxypropylcellulose) (HPC)

COc1ccc2ccc3c4c(c(=O)[nH]c3c2n1)CCC4
T/C (dose: 100.0 mg/kg/injection, schedule: Q04DX003 (ip), vehicle: saline): 101 % of control | T/C (dose: 200.0 mg/kg/injection, schedule: Q04DX003 (ip), vehicle: saline): 92 % of control | T/C (dose: 400.0 mg/kg/injection, schedule: Q04DX003 (ip), vehicle: saline): 105 % of control

CC(=O)C(N=Nc1ccc(S(=O)(=O)N=C(N)N)cc1)C(C)=O
T/C [1]: 90 % of control | T/C (dose: 200.0 mg/kg/injection, schedule: Q04DX003 (ip), vehicle: saline with Tween-80): 88 % of control | T/C (dose: 400.0 mg/kg/injection, schedule: Q04DX003 (ip), vehicle: saline with Tween-80): 87 % of control

CC(=O)c1ccc(NC(=O)C#N)cc1
T/C (dose: 7.5 mg/kg/injection, schedule: Q01DX005 (ip), vehicle: saline with Tween-80): 104 % of control | T/C (dose: 15.0 mg/kg/injection, schedule: Q01DX005 (ip), vehicle: saline with Tween-80): 110 % of control

O=P(c1ccccc1)(c1ccccc1)c1ccccc1.O=P(c1ccccc1)(c1ccccc1)c1ccccc1.O=P(c1ccccc1)(c1ccccc1)c1ccccc1.O=P(c1ccccc1)(c1ccccc1)c1ccccc1.[Cr+3].[O-][Cl+3]([O-])([O-])O
T/C (dose: 100.0 mg/kg/injection, schedule: Q04DX003 (ip), vehicle: saline + Tween-80 + alcohol): 101 % of control | T/C (dose: 200.0 mg/kg/injection, schedule: Q04DX003 (ip), vehicle: saline + Tween-80 + alcohol): 100 % of control

COC(=O)C12CN3CC(C)(C1)C(=O)C(C)(C3)C2=O (stereo unspecified)
T/C (dose: 30.0 mg/kg/injection, schedule: Q01DX005 (ip), vehicle: Klucel (hydroxypropylcellulose) (HPC)): 100 % of control | T/C (dose: 60.0 mg/kg/injection, schedule: Q01DX005 (ip), vehicle: Klucel (hydroxypropylcellulose) (HPC)): 103 % of control and 107 % of control | T/C (dose: 120.0 mg/kg/injection, schedule: Q01DX005 (ip), vehicle: Klucel (hydroxypropylcellulose) (HPC)): 107 % of control | T/C (dose: 240.0 mg/kg/injection, schedule: Q01DX005 (ip), vehicle: Klucel (hydroxypropylcellulose) (HPC)): 89 % of control

CC(=O)c1c(Br)c2c3ccccc3c3ccccc3n2c1C
T/C (dose: 60.0 mg/kg/injection, schedule: Q01DX005 (ip), vehicle: saline with Tween-80): 107 % of control | T/C (dose: 120.0 mg/kg/injection, schedule: Q01DX005 (ip), vehicle: saline with Tween-80): 106 % of control | T/C (dose: 240.0 mg/kg/injection, schedule: Q01DX005 (ip), vehicle: saline with Tween-80): 92 % of control

CC(=O)OCC1OC(n2nnc3c(=O)[nH]cnc32)C(OC(C)=O)C(OC(C)=O)C1OC(C)=O (stereo unspecified)
T/C (dose: 100.0 mg/kg/injection, schedule: Q01DX001 (ip), vehicle: saline with Tween-80): 96 % of control | T/C (dose: 200.0 mg/kg/injection, schedule: Q01DX001 (ip), vehicle: saline with Tween-80): 102 % of control | T/C (dose: 400.0 mg/kg/injection, schedule: Q01DX001 (ip), vehicle: saline with Tween-80): 94 % of control

CCOc1ccc(C(C)c2cc3c(cc2OCC(=O)O)OCO3)cc1 (stereo unspecified)
T/C [2]: 109 % of control | T/C [3]: 90 % of control

Fc1ccc(C(Nc2nncs2)Nc2nncs2)cc1
T/C [4]: 111 % of control | T/C [5]: 152 % of control

CCCC(C)(C(=O)Nc1ccc2nc(C)cc(N)c2c1)C(=O)Nc1ccc2nc(C)cc(N)c2c1
T/C [2]: 94 % of control | T/C [3]: 96 % of control

CCC(C)C(N)C(=O)O (stereo unspecified)
T/C [6]: 109 % of control | T/C [7]: 94 % of control | T/C (dose: 200.0 mg/kg/injection, schedule: Q01DX009 (ip), vehicle: Klucel (hydroxypropylcellulose) (HPC)): 105 % of control

C=CCCC(OC(C)C)OC(C)C
T/C (dose: 50.0 mg/kg/injection, schedule: Q01DX009 (ip), vehicle: saline): 98 % of control | T/C (dose: 100.0 mg/kg/injection, schedule: Q01DX009 (ip), vehicle: saline): 99 % of control | T/C (dose: 200.0 mg/kg/injection, schedule: Q01DX009 (ip), vehicle: saline): 108 % of control

Cc1oc2c(C)c3oc(=O)cc(C)c3cc2c1CN
T/C (dose: 12.5 mg/kg/injection, schedule: Q01DX001 (ip), vehicle: Klucel (hydroxypropylcellulose) (HPC)): 111 % of control | T/C (dose: 25.0 mg/kg/injection, schedule: Q01DX001 (ip), vehicle: Klucel (hydroxypropylcellulose) (HPC)): 96 % of control

CCN=C1C=CC(=C(c2ccc(N)cc2)c2ccc(N(CC)CC)c(C)c2)C=C1
T/C (dose: 1.56 mg/kg/injection, schedule: Q01DX005 (ip), vehicle: saline): 106 % of control | T/C (dose: 3.12 mg/kg/injection, schedule: Q01DX005 (ip), vehicle: saline): 112 % of control

CCCCOc1cc2c(cc1C(C)c1ccc(OC)cc1)OCO2 (stereo unspecified)
T/C (dose: 50.0 mg/kg/injection, schedule: Q01DX005 (ip), vehicle: distilled water + alcohol): 96 % of control | T/C (dose: 100.0 mg/kg/injection, schedule: Q01DX005 (ip), vehicle: distilled water + alcohol): 95 % of control | T/C (dose: 200.0 mg/kg/injection, schedule: Q01DX005 (ip), vehicle: distilled water + alcohol): 96 % of control

NC(=O)c1cncc(C(=O)O)c1
T/C [4]: 106 % of control | T/C [8]: 101 % of control | T/C [5]: 100 % of control

OCCCCCCCCCCCCCC1C=CCC1 (stereo unspecified)
T/C (dose: 100.0 mg/kg/injection, schedule: Q01DX001 (ip), vehicle: saline): 104 % of control | T/C (dose: 200.0 mg/kg/injection, schedule: Q01DX001 (ip), vehicle: saline): 100 % of control | T/C (dose: 400.0 mg/kg/injection, schedule: Q01DX001 (ip), vehicle: saline): 100 % of control

CCSSc1ccccc1C(=O)O
T/C [4]: 102 % of control | T/C [8]: 109 % of control | T/C [5]: 112 % of control

CCN(CC)Cc1c(OC)ccc2[nH]c3c4ccc(Cl)cc4ncc3c12
T/C (dose: 25.0 mg/kg/injection, schedule: Q01DX005 (ip), vehicle: saline with Tween-80): 109 % of control | T/C [2]: 101 % of control | T/C [3]: 106 % of control | T/C (dose: 200.0 mg/kg/injection, schedule: Q01DX005 (ip), vehicle: saline with Tween-80): 112 % of control

OC1(c2ccncc2)C=CCC1 (stereo unspecified)
T/C (dose: 100.0 mg/kg/injection, schedule: Q04DX002 (ip), vehicle: saline with Tween-80): 95 % of control

COc1cc2c(c(OC)c1OC)-c1ccc(SC)c(=O)cc1[C@@H](NC1OC(COC(C)=O)C(OC(C)=O)C(OC(C)=O)C1OC(C)=O)CC2 (stereo partly specified)
T/C (dose: 0.75 mg/kg/injection, schedule: Q01DX009 (ip), vehicle: other): 97 % of control | T/C (dose: 1.5 mg/kg/injection, schedule: Q01DX009 (ip), vehicle: other): 97 % of control | T/C (dose: 3.0 mg/kg/injection, schedule: Q01DX009 (ip), vehicle: other): 102 % of control | T/C (dose: 6.0 mg/kg/injection, schedule: Q01DX009 (ip), vehicle: other): 107 % of control | T/C (dose: 12.0 mg/kg/injection, schedule: Q01DX009 (ip), vehicle: other): 117 % of control | T/C (dose: 24.0 mg/kg/injection, schedule: Q01DX009 (ip), vehicle: other): 120 % of control | T/C (dose: 192.0 mg/kg/injection, schedule: Q01DX009 (ip), vehicle: other): 150 % of control

O=S1(=O)C=C(c2cccs2)C1
T/C (dose: 25.0 mg/kg/injection, schedule: Q04DX003 (ip), vehicle: saline with Tween-80): 97 % of control | T/C (dose: 50.0 mg/kg/injection, schedule: Q04DX003 (ip), vehicle: saline with Tween-80): 109 % of control | T/C [1]: 105 % of control and 112 % of control

OC(C1=CCCCC1)(c1ccccc1)c1ccccc1
T/C (dose: 25.0 mg/kg/injection, schedule: Q01DX005 (ip), vehicle: Klucel (hydroxypropylcellulose) (HPC)): 98 % of control | T/C [4]: 100 % of control | T/C [8]: 90 % of control | T/C [5]: 91 % of control

c1ccc(Cc2ccccc2)cc1
T/C (dose: 50.0 mg/kg/injection, schedule: Q01DX009 (ip), vehicle: saline with Tween-80): 105 % of control | T/C (dose: 100.0 mg/kg/injection, schedule: Q01DX009 (ip), vehicle: saline with Tween-80): 110 % of control | T/C (dose: 200.0 mg/kg/injection, schedule: Q01DX009 (ip), vehicle: saline with Tween-80): 109 % of control

O=C(OCCN1CCN(CCCN2c3ccccc3Sc3ccc(C(F)(F)F)cc32)CC1)C12CC3CC(CC(C3)C1)C2
T/C (dose: 3.12 mg/kg/injection, schedule: Q01DX009 (ip), vehicle: Klucel (hydroxypropylcellulose) (HPC)): 105 % of control | T/C (dose: 6.25 mg/kg/injection, schedule: Q01DX009 (ip), vehicle: Klucel (hydroxypropylcellulose) (HPC)): 103 % of control and 96 % of control | T/C (dose: 12.5 mg/kg/injection, schedule: Q01DX009 (ip), vehicle: Klucel (hydroxypropylcellulose) (HPC)): 110 % of control and 112 % of control and 97 % of control | T/C (dose: 25.0 mg/kg/injection, schedule: Q01DX009 (ip), vehicle: Klucel (hydroxypropylcellulose) (HPC)): 112 % of control | T/C [6]: 113 % of control | T/C [7]: 118 % of control
